# From PMC10447463, “Data-mining unveils structure–property–activity correlation of viral infectivity enhancing self-assembling peptides” (Nature Communications, 2023)
# Tested on: HIV-1 infection of TZM-bl cells
# Assay: HIV-1 infectivity enhancement assay, β-galactosidase luminescence
# Format: cell-based
# Details: input.xlsx of the Pattern-Analysis script; infectivity relative to EF-C (peptide 59 = 1.00)
row,Substance,infectivity
1,CKFKQFF [compound 17],0.00675
2,CSISIQINM [compound 135],0.20
3,KVKVQVV [compound 119],0.00912
4,KFKFQFN [compound 9],0.018
5,CKAKAQANM [compound 11],0.03
6,KIKQIINMWQ [compound 65],0.35
7,KFKFQFNM [compound 8],0.47
8,KIKIQIRGD [compound 102],0.02
9,CEIEIQINM [compound 134],0.0651
10,RGECKFKFQF [compound 32],0.33
11,HIHIQIC [compound 29],0.27
12,KIKIQII [compound 113],0.0187
13,CKIKIQI [compound 99],1.02
14,CKIKQIINM [compound 3],0.50
15,KYKGAIIGNIK [compound 34],0.0031
16,CKIKIQIII [compound 1],0.98
17,HGDKCHGDKC [compound 35],0.01
18,CKIKIQINMW [compound 153],1.29
19,QCKIKQII [compound 24],0.00647
20,KIRGKFEKED [compound 47],0.06
21,ILKNLSRSRKIKIQINMWQ [compound 154],0.32
22,CKAKAQANMWQ [compound 10],0.0437
23,QCKFKFQF [compound 27],0.77
24,KAKAQANMWQ [compound 66],0.00715
25,NMWQKIKQII [compound 71],0.0253
26,HGEHGE [compound 53],0.00641

row,Substance,infectivity
1,KFKFKFQF [compound 118],0.80
2,CEFEFQF [compound 90],0.00521
3,RGDKIKIQINM [compound 104],0.41
4,KIKIQI [compound 79],0.07
5,CKFKFQFNM [compound 5],1.24
6,KVKGVGK [compound 43],0.0259
7,NMWQKVGTPL [compound 70],0.0247
8,KIKIQIC [compound 125],0.61
9,KFKQFFINMWQ [compound 158],0.92
10,CKIKIQIRGD [compound 109],0.33
11,KFKFEFEF [compound 106],0.0284
12,PPFHPPPFHP [compound 38],0.0177
13,RGDKIKIQI [compound 97],0.0157
14,MKFKFQF [compound 58],0.0637
15,KAKAKAQA [compound 116],0.00871
16,CQFQFQF [compound 112],0.35
17,CKFC [compound 50],0.011
18,KIKIQIN [compound 77],0.27
19,CEIEIQINMWQ [compound 133],0.22
20,CEIEIQI [compound 2],0.0279
21,HHHHKAKAKAKAWWWW [compound 151],0.09
22,QCKIKQIINM [compound 23],0.35
23,EIKIQINM [compound 149],0.10
24,HHHHKIKIKIKIWWWW [compound 140],0.38
25,CKFQC [compound 48],0.0227
26,KIEIQINM [compound 108],0.0348

row,Substance,infectivity
1,KIKIKIQINMWQ [compound 163],0.79
2,KLKLKLQL [compound 117],0.10
3,RLRLTLC [compound 30],0.05
4,KFKQFFNMWQ [compound 68],0.09
5,MKIKIQINMWQ [compound 143],0.42
6,KKFQKKFQ [compound 37],0.0285
7,KIKIQIAMWQ [compound 85],0.39
8,CKFKFQFW [compound 148],0.88
9,KIKIQINAWQ [compound 84],0.54
10,KIKIKIKIWW [compound 139],0.37
11,NMWQKAKAQA [compound 62],0.04
12,KIKIQIMQWN [compound 160],0.72
13,RGDKIKIQIC [compound 103],0.83
14,EIEIQINM [compound 155],0.0363
15,FDPFDPFDP [compound 40],0.0234
16,KNERIKNERI [compound 46],0.013
17,IKVAVKIKIQINM [compound 150],0.50
18,KWKWQW [compound 93],0.0145
19,KIKIQINMWA [compound 81],0.69
20,HLHLPLL [compound 31],0.01
21,CKFKQFFNMWQ [compound 15],0.61
22,CRFRVPF [compound 55],0.02
23,KVKVKVQV [compound 64],0.0173
24,KIKIKIKIYYYY [compound 86],1.38
25,KIKQIINM [compound 73],0.45
26,CKIW [compound 152],0.05

row,Substance,infectivity
1,QCKIKIQI [compound 22],0.11
2,KLKLQLL [compound 120],0.00698
3,HHHHKAKAKAKAYYYY [compound 124],0.0131
4,KIKIQINMWWQ [compound 156],3.21
5,QCKFKQFF [compound 14],0.0124
6,RGDCKFKFQF [compound 145],0.15
7,KIKIQIMWNQ [compound 159],0.56
8,CKIKIQINMWQ [compound 96],0.70
9,QCKAKAQA [compound 21],0.0253
10,KIKQIIN [compound 74],0.04
11,MKIKIQINM [compound 141],0.27
12,CKIKQIIRGD [compound 110],0.05
13,KYKYQY [compound 88],0.01
14,KIKIQINMWQ [compound 61],0.30
15,KFKFQFNMW [compound 7],0.45
16,KIKIQINMWQRGD [compound 161],0.0121
17,KVKVQVVV [compound 123],0.0351
18,CSISIQI [compound 132],0.0559
19,KIKIQINMWWWQ [compound 157],2.75
20,RGDSKIKIQIC [compound 126],0.60
21,CKFKQFFNM [compound 16],0.41
22,KIKIQIII [compound 122],0.35
23,QCKIKQIINMWQ [compound 59],1.00
24,NMWQKFKFQF [compound 63],0.27
25,QCKAKAQANMWQ [compound 19],0.07
26,RGEKIKIQINM [compound 33],0.24

row,Substance,infectivity
1,CKFKFQFNMW [compound 91],0.96
2,QCKFKFQFNM [compound 26],0.51
3,RGDCKIKIQINM [compound 142],0.24
4,KIKIQINM [compound 76],0.36
5,KIKIQIW [compound 146],0.14
6,CKFKFQFNMWQ [compound 4],1.16
7,RPRGLLLGNLR [compound 36],0.05
8,CKAKAQA [compound 137],0.03
9,CKIKQII [compound 100],0.04
10,HHHHEIEIEIEI [compound 87],0.03
11,KFKFQFFF [compound 114],0.40
12,EIEIEIEI [compound 82],0.0178
13,KAKAQANM [compound 136],0.009
14,KFKFQFW [compound 147],0.16
15,KFKFQFNMWQ [compound 67],0.76
16,KLKQLL [compound 95],0.00739
17,CHLHLQL [compound 56],0.10
18,KFKFQF [compound 80],0.06
19,KIKIKIKI [compound 130],0.0326
20,ILKNLSRSRKIKIQIC [compound 128],0.34
21,KIKIQINMAQ [compound 83],0.21
22,CEFEFQFNMWQ [compound 131],0.14
23,NMWQKIKIQI [compound 72],0.21
24,QCKFKQFFNM [compound 13],0.43
25,FKFDKFKFDK [compound 42],0.0464
26,TKTLTKTL [compound 41],0.0213

row,Substance,infectivity
1,HRRHFRHKITKKK [compound 45],0.0136
2,CKYKYQY [compound 92],0.04
3,MDQMDQMDQMDQMDQ [compound 39],0.00427
4,KAKAQA [compound 78],0.0181
5,HHHHKIKIQINMYYYY [compound 138],1.11
6,MKFM [compound 49],0.0175
7,CRFRFQF [compound 28],0.34
8,KIKIQINMW [compound 75],2.16
9,EIEIQINMWQ [compound 162],0.13
10,HHHHKIKIKIKIYYYY [compound 144],0.68
11,CKWKWQW [compound 94],0.25
12,QCKIKIQINMWQ [compound 60],1.04
13,HGEHGEHGE [compound 54],0.019
14,RGDKIKIQINMWQ [compound 105],0.76
15,CETMYDKILKNLSRSR [compound 57],0.02
16,QCKFKFQFNMWQ [compound 25],0.62
17,QCKAKAQANM [compound 20],0.0146
18,CKIKIQINM [compound 98],1.59
19,KIKIKIKIWWWW [compound 129],0.59
20,RGDSGGGGGGKIKIQIC [compound 127],0.87
21,EFEFQF [compound 89],0.00327
22,KNDKND [compound 52],0.0105
